Results published in patent publication US20200121812A1 (Teva Pharmaceuticals International GmbH, priority 2015, published 2020).

How the values were obtained:
[1] = system: dopamine in the striatum; assay: Microdialysis in Sprague-Dawley rats; format: in vivo
[2] = cited from earlier work
[3] = cited from earlier work; remark: listed apart in the source
[4] = system: 6-OHDA lesioned rats; settings: cited from earlier work; for effectiveness on motor performance compared to L-DOPA: as disclosed in WO2014/122184A1
[5] = system: striatal dopamine; settings: cited from earlier work; for increase and prolongation of the output of striatal dopamine: WO2004/056724 and WO2007/093450
[6] = system: striatum (extracellular L-DOPA, DA and metabolites); assay: Microdialysis in Wistar Rats (striatal dialysate levels after COMTi pretreatment); format: in vivo; settings: COMTi 30 mg/kg p.o. 2 hours before SD-1077/Carbidopa 50/25 mg/kg p.o.; FIG. 4
[7] = system: advanced PD patients with motor fluctuations; assay: Clinical trial of opicapone add on to deuterated levodopa/carbidopa; format: in vivo, human; settings: add on opicapone 20 mg once daily, 12 weeks; expected
[8] = system: Parkinson models; settings: cited from earlier work
[9] = plus carbidopa, compared to conventional levodopa plus carbidopa
[10] = opicapone before levodopa (sequential dosing) compared to concomitant administration, US2014/0045900A1

[2H]C([2H])(c1ccc(O)c(O)c1)[C@]([2H])(N)C(=O)O [Deulevodopa]
central bioavailability [1, 9]: increased
half life of dopamine [1, 9]: about doubled

Cc1ccc(C(=O)c2cc(O)c(O)c([N+](=O)[O-])c2)cc1 [tolcapone]
hepatotoxicity ([2]; after market launch): several cases of hepatotoxicity
crossing of the BBB ([2]; in vivo): crosses the BBB

N[C@@H](Cc1ccc(O)c(O)c1)C(=O)O [levodopa]
dopamine in the extracellular space in the striatal brain tissue ([1]; plus carbidopa): increase
half life ([3]; in vivo): about 1.5 hours
share of an oral dose that reaches the brain ([3]; oral): 1%

[2H][C@@H](c1ccc(O)c(O)c1)[C@]([2H])(N)C(=O)O [α,β-D2-L-DOPA, S/S-2-amino-2,3-dideutero-3-(3,4-dihydroxyphenyl) propionic acid]
effectiveness on motor performance compared to L-DOPA [4]: as effective as L-DOPA at lower doses
increase and prolongation of the output of striatal dopamine [5]: significantly more than L-DOPA
striatal dopamine concentrations ([5]; compared with L-DOPA and α,β,β-D3-L-DOPA): highest

[2H]C([2H])(c1ccc(O)c(O)c1)[C@]([2H])(N)C(=O)O [d3-L-DOPA]
bioavailability of d3-dopamine in the striatum ([1]; 50 mg/kg ip, rats, compared to conventional L-DOPA (50 mg/kg ip), FIG. 1): significantly increased

Cc1c(Cl)c(C)[n+]([O-])c(Cl)c1-c1noc(-c2cc(O)c(O)c([N+](=O)[O-])c2)n1 [opicapone, 2,5-dichloro-3-[5-(3,4-dihydroxy-5-nitrophenyl]-1,2,4-oxadiazol-3-yl)-4,6-dimethylpyridine 1-oxide]
extracellular striatal levels of deuterated L-DOPA (SD-1077) [6]: more effective than entacapone
increase of ON time without dyskinesia compared to placebo [7]: about 40 min
levodopa exposure ([2]; Parkinson's patients): increase levodopa exposure in a dose-dependent manner
motor outcomes ([2]; Parkinson's patients): improve
food effect on rate and extent of absorption ([2]; US2014/0045900A1): marked food effect
levodopa Cmax [2, 10]: decrease
levodopa systemic exposure [2, 10]: increase

[2H]C([2H])(c1ccc(O)c(O)c1)[C@]([2H])(N)C(=O)O [α,β,β-D3-L-DOPA, L-2-Amino-2,3,3-trideutero-3-(3,4-dihydroxyphenyl) propionic acid]
effectiveness on motor performance compared to L-DOPA [4]: as effective as L-DOPA at lower doses
increase and prolongation of the output of striatal dopamine [5]: significantly more than L-DOPA
striatal dopamine levels compared to L-DOPA ([5]; in vivo): higher longer-lasting
equi-effective dose compared to L-DOPA ([8]; in vivo): about 60%
motor activity compared to L-DOPA ([8]; several Parkinson models, Malmlof et al.): improved

L-2-amino-2,3,3*-trideutero-3-(3,4-dihydroxyphenyl) propionic acid [Composition 1]
effectiveness on motor performance compared to L-DOPA [4]: as effective as L-DOPA at lower doses
observed dyskinesia side effects relative to levodopa ([4]; rat model of Parkinson's disease, at equivalent motor effect, WO2014/122184A1): 50%
dose yielding equivalent motor effect to levodopa, as % of the levodopa dose ([4]; rat model of Parkinson's disease, WO2014/122184A1): 35%
